ChEMBL document CHEMBL3046322, “Insect growth regulatory effects by diterpenes from Calceolaria talcana Grau & Ehrhart (Calceolariaceae: Scrophulariaceae) against Spodoptera frugiperda and Drosophila melanogaster” (2013)
Calls of active or inactive are those of the source. The rule behind the calls is not given here.

How the values were obtained:
[1] = tested on: Drosophila melanogaster; assay: Insecticidal activity against Drosophila melanogaster larvae fed with compound incorporated diet assessed as mortality at 5 to 100 ug/ml after 72 hr by not choice test (reference value: 0%); format: functional, organism-based
[2] = tested on: Spodoptera frugiperda; assay: Growth inhibitory activity against Spodoptera frugiperda (fall armyworm) larvae fed with compound containing diet assessed as growth index at 10 ug/ml (reference value: 0.95 +/-0.02 no_unit); format: functional
[3] = tested on: Spodoptera frugiperda; assay: Growth inhibitory activity against po dosed Spodoptera frugiperda (fall armyworm) larvae assessed as promotion of apolysis to fifth instar with ecdysis inhibition at 5 to 20 ug/ml; format: functional, organism-based
[4] = tested on: Spodoptera frugiperda; assay: Growth inhibitory activity against Spodoptera frugiperda (fall armyworm) larvae fed with compound containing diet assessed as growth index at 35 ug/ml (reference value: 0.95 +/-0.02 no_unit); format: functional
[5] = tested on: Drosophila melanogaster; assay: Insecticidal activity against Drosophila melanogaster larvae fed with compound incorporated diet assessed as mortality at 20 ug/ml after 72 hr by not choice test (reference value: 0%); format: functional
[6] = tested on: Spodoptera frugiperda; assay: Growth inhibitory activity against Spodoptera frugiperda (fall armyworm) larvae fed with compound containing diet assessed as relative growth index at 10 ug/ml (reference value: 1.0 no_unit); format: functional
[7] = tested on: Spodoptera frugiperda; assay: Growth inhibitory activity against Spodoptera frugiperda (fall armyworm) larvae fed with compound containing diet assessed as relative growth index at 50 ug/ml (reference value: 1.0 no_unit); format: functional
[8] = tested on: Drosophila melanogaster; assay: Insecticidal activity against Drosophila melanogaster larvae fed with compound incorporated diet assessed as mortality at 100 ug/ml after 72 hr by not choice test (reference value: 0%); format: functional
[9] = tested on: Spodoptera frugiperda; assay: Growth inhibitory activity against po dosed fourth-instar larvae of Spodoptera frugiperda (fall armyworm) assessed as proportion of prothetely appearance of precocious pupal structure in larvae after 48 to 72 hr; format: functional; parameters: scale not given: the % may be the effect or the level left
[10] = tested on: Drosophila melanogaster; assay: Insecticidal activity against Drosophila melanogaster larvae fed with compound incorporated diet assessed as mortality at 50 ug/ml after 72 hr by not choice test (reference value: 0%); format: functional
[11] = tested on: Spodoptera frugiperda; assay: Growth inhibitory activity against Spodoptera frugiperda (fall armyworm) larvae fed with compound containing diet assessed as growth index at 25 ug/ml (reference value: 0.95 +/-0.02 no_unit); format: functional
[12] = tested on: Spodoptera frugiperda; assay: Growth inhibitory activity against Spodoptera frugiperda (fall armyworm) larvae fed with compound containing diet assessed as relative growth index at 35 ug/ml (reference value: 1.0 no_unit); format: functional
[13] = tested on: Spodoptera frugiperda; assay: Growth inhibitory activity against Spodoptera frugiperda (fall armyworm) larvae fed with compound containing diet assessed as growth index at 50 ug/ml (reference value: 0.95 +/-0.02 no_unit); format: functional
[14] = tested on: Spodoptera frugiperda; assay: Growth inhibitory activity against Spodoptera frugiperda (fall armyworm) larvae fed with compound containing diet assessed as relative growth index at 25 ug/ml (reference value: 1.0 no_unit); format: functional
[15] = tested on: Spodoptera frugiperda; assay: Growth inhibitory activity against first-instar larval stage of Spodoptera frugiperda (fall armyworm) fed with compound incorporated diet assessed as weight gained at 10 ug/ml after 7 days (reference value: 100%); format: functional; parameters: scale not given: the % may be the effect or the level left
[16] = tested on: Spodoptera frugiperda; assay: Insecticidal activity against first-instar larval stage of Spodoptera frugiperda (fall armyworm) fed with compound incorporated diet assessed as mortality at 25 ug/ml after 21 days (reference value: 5.6%); format: functional; details: 504 h
[17] = tested on: Spodoptera frugiperda; assay: Growth inhibitory activity against first-instar larval stage of Spodoptera frugiperda (fall armyworm) fed with compound incorporated diet assessed as weight gained at 25 ug/ml after 21 days (reference value: 100%); format: functional; parameters: scale not given: the % may be the effect or the level left
[18] = tested on: Spodoptera frugiperda; assay: Insecticidal activity against first-instar larval stage of Spodoptera frugiperda (fall armyworm) fed with compound incorporated diet assessed as mortality at 25 ug/ml after 7 days (reference value: 5.6%); format: functional; details: 168 h
[19] = tested on: Spodoptera frugiperda; assay: Growth inhibitory activity against Spodoptera frugiperda (fall armyworm) larvae fed with compound containing diet assessed as reduction in adult emergence at 20 ug/ml; format: functional
[20] = tested on: Spodoptera frugiperda; assay: Acute toxicity against last larval stage of Spodoptera frugiperda (fall armyworm) assessed as survival at 10 ug/ml applied topically onto abdomen measured after 24 hr (reference value: 98.8 +/-3.5%); format: functional
[21] = tested on: Spodoptera frugiperda; assay: Growth inhibitory activity against first-instar larval stage of Spodoptera frugiperda (fall armyworm) fed with compound incorporated diet assessed as weight gained at 50 ug/ml after 21 days (reference value: 100%); format: functional
[22] = tested on: Spodoptera frugiperda; assay: Growth inhibitory activity against first-instar larval stage of Spodoptera frugiperda (fall armyworm) fed with compound incorporated diet assessed as length gained at 10 ug/ml after 21 days (reference value: 100%); format: functional
[23] = tested on: Spodoptera frugiperda; assay: Insecticidal activity against first-instar larval stage of Spodoptera frugiperda (fall armyworm) fed with compound incorporated diet assessed as mortality at 50 ug/ml after 7 days (reference value: 5.6%); format: functional; details: 168 h
[24] = tested on: Spodoptera frugiperda; assay: Growth inhibitory activity against Spodoptera frugiperda (fall armyworm) larvae fed with compound containing diet assessed as delay in time to pupation; format: functional, organism-based
[25] = tested on: Spodoptera frugiperda; assay: Growth inhibitory activity against first-instar larval stage of Spodoptera frugiperda (fall armyworm) fed with compound incorporated diet assessed as weight gained at 25 ug/ml after 7 days (reference value: 100%); format: functional; parameters: scale not given: the % may be the effect or the level left
[26] = tested on: Spodoptera frugiperda; assay: Growth inhibitory activity against Spodoptera frugiperda (fall armyworm) larvae fed with compound containing diet assessed as reduction in adult emergence at 35 ug/ml; format: functional
[27] = tested on: Spodoptera frugiperda; assay: Growth inhibitory activity against first-instar larval stage of Spodoptera frugiperda (fall armyworm) fed with compound incorporated diet assessed as weight gained at 50 ug/ml after 7 days (reference value: 100%); format: functional; parameters: scale not given: the % may be the effect or the level left
[28] = tested on: Spodoptera frugiperda; assay: Growth inhibitory activity against first-instar larval stage of Spodoptera frugiperda (fall armyworm) fed with compound incorporated diet assessed as weight gained at 10 ug/ml after 21 days (reference value: 100%); format: functional
[29] = tested on: Spodoptera frugiperda; assay: Growth inhibitory activity against first-instar larval stage of Spodoptera frugiperda (fall armyworm) fed with compound incorporated diet assessed as length gained at 25 ug/ml after 21 days (reference value: 100%); format: functional; parameters: scale not given: the % may be the effect or the level left
[30] = tested on: Spodoptera frugiperda; assay: Insecticidal activity against first-instar larval stage of Spodoptera frugiperda (fall armyworm) fed with compound incorporated diet assessed as mortality at 10 ug/ml after 21 days (reference value: 5.6%); format: functional; details: 504 h
[31] = tested on: Spodoptera frugiperda; assay: Insecticidal activity against first-instar larval stage of Spodoptera frugiperda (fall armyworm) fed with compound incorporated diet assessed as mortality at 10 ug/ml after 7 days (reference value: 5.6%); format: functional; details: 168 h
[32] = tested on: Spodoptera frugiperda; assay: Growth inhibitory activity against first-instar larval stage of Spodoptera frugiperda (fall armyworm) fed with compound incorporated diet assessed as length gained at 50 ug/ml after 21 days (reference value: 100%); format: functional
[33] = tested on: Spodoptera frugiperda; assay: Acute toxicity against last larval stage of Spodoptera frugiperda (fall armyworm) assessed as survival at 25 ug/ml applied topically onto abdomen measured after 24 hr (reference value: 98.8 +/-3.5%); format: functional
[34] = tested on: Spodoptera frugiperda; assay: Growth inhibitory activity against first-instar larval stage of Spodoptera frugiperda (fall armyworm) fed with compound incorporated diet assessed as length gained at 10 ug/ml after 7 days (reference value: 100%); format: functional
[35] = tested on: Spodoptera frugiperda; assay: Growth inhibitory activity against first-instar larval stage of Spodoptera frugiperda (fall armyworm) fed with compound incorporated diet assessed as length gained at 50 ug/ml after 7 days (reference value: 100%); format: functional
[36] = tested on: Spodoptera frugiperda; assay: Growth inhibitory activity against first-instar larval stage of Spodoptera frugiperda (fall armyworm) fed with compound incorporated diet assessed as length gained at 25 ug/ml after 7 days (reference value: 100%); format: functional; parameters: scale not given: the % may be the effect or the level left
[37] = tested on: Spodoptera frugiperda; assay: Growth inhibitory activity against Spodoptera frugiperda (fall armyworm) larvae fed with compound containing diet assessed as delay in adult emergence; format: functional, organism-based
[38] = tested on: Spodoptera frugiperda; assay: Insecticidal activity against first-instar larval stage of Spodoptera frugiperda (fall armyworm) fed with compound incorporated diet assessed as mortality at 50 ug/ml after 21 days (reference value: 5.6%); format: functional; details: 504 h

`C=C(C)[C@@H]1CC[C@]2(C)CC[C@]3(C)[C@H](CC[C@@H]4[C@@]5(C)CC[C@H](O)C(C)(C)[C@@H]5CC[C@]43C)[C@@H]12` was tested, and the mortality [1] was “inactive”.

For `CC1OC2=C(C(=O)c3ccccc3C2=O)C1(C)C` (stereo unspecified), the mortality [1] was “inactive”.

In the case of `CC[C@H](CC[C@@H](C)[C@H]1CC[C@H]2[C@@H]3CC=C4C[C@@H](O)CC[C@]4(C)[C@H]3CC[C@]12C)C(C)C`, the mortality [1] is reported as “inactive”.

For `C[C@@H]1O[C@@H](O[C@@H]2[C@@H](O)[C@H](OCCc3ccc(O)c(O)c3)O[C@H](CO)[C@H]2OC(=O)/C=C/c2ccc(O)c(O)c2)[C@H](O)[C@H](O)[C@H]1O` [ACETOSIDE], the Growth_index [2] was 0.66, the Activity [3] was “Active” and the Growth_index [4] was 0.09. For the same molecule, the mortality at 20 µg/mL [5] was 92%, the Growth_index [6] was 0.67 and the Growth_index [7] was 0.1. It also gave a mortality at 100 µg/mL [8] of 100%, an Activity [9] of 30% and a mortality at 50 µg/mL [10] of 100%. It also gave a Growth_index [11] of 0.41, a Growth_index [12] of 0.15 and a Growth_index [13] of 0.07. For the same molecule, the Growth_index [14] was 0.45.

For `CC(=O)O[C@@H]1C[C@H]2C(C)(C)C(=O)C=C[C@]2(C)[C@H]2CC[C@@]3(C)[C@H](c4ccoc4)OC(=O)[C@H]4O[C@]43[C@@]21C` [GEDUNIN], the Activity [15] was 7.1%, the mortality at 25 µg/mL [16] was 100% and the Activity [17] was 0%. It also gave a mortality at 25 µg/mL [18] of 38%, an inhibition at 20 µg/mL [19] of 0% and an Activity [20] of 54.7%. For the same molecule, the “Weight gain relative to control” value [21] was 2.05%, the Growth_index [2] was 0.77 and the Activity [3] was “Active”. The “Length gained relative to control” value [22] was 0%, the mortality at 50 µg/mL [23] was 70.8% and the inhibition [24] was “Active”. The Activity [25] was 3.3%, the mortality at 20 µg/mL [5] was 87.1% and the Growth_index [6] was 0.71. It also gave an inhibition at 35 µg/mL [26] of 0%, a Growth_index [7] of 0.11 and an Activity [27] of 1.9%. For the same molecule, the “Weight gain (% of control)” value [28] was 0%, the Activity [29] was 0% and the mortality at 10 µg/mL [30] was 100%. The mortality at 10 µg/mL [31] was 33%, the mortality at 100 µg/mL [8] was 11% and the “Length gained (% of control)” value [32] was 11.6%. For the same molecule, the Activity [9] was 30%, the Activity [33] was 14.1% and the “Larval length gained (% of control)” value [34] was 32.5%. The mortality at 50 µg/mL [10] was 100%, the “Length gain relative to control” value [35] was 16.7% and the Growth_index [11] was 0.51. It also gave a Growth_index [13] of 0.1, a Growth_index [14] of 0.55 and an Activity [36] of 20%. For the same molecule, the inhibition [37] was “Active” and the mortality at 50 µg/mL [38] was 98.7%.
